The text below walks through data of US6475746B1, “Method of obtaining a composition comprising a 5-HT1D selective compound” (Synaptic Pharmaceutical Corporation, priority 1990, dated 2002).

Like-named read-outs stand apart in the source and are kept apart here.

Data set [1] addresses Cloned Human 5-HT1D-2 (Homo sapiens, UniProt P28222). In words: [3H]5-HT binding to cloned human 5-HT1D-2 (gene 11) in transfected cell membranes.
The target in data set [2] is Cloned Human 5-HT1D-1 (Homo sapiens, UniProt P28221). The data set is described as follows: [3H]5-HT binding to cloned human 5-HT1D-1 (gene 8-30-84) in transfected cell membranes.
Data set [3] concerns the target Human Native Membranes 5-HT1D. The note with it: literature values (footnotes a, b, c), read-out: Estimated equilibrium dissociation constants (Ki values); cited from earlier work.
For data set [4], the target named is Cloned Canine 5-HT1D-1 (RDC4) (Canis lupus familiaris, UniProt P11614). In words: [3H]5-HT binding to cloned canine 5-HT1D-1 (RDC4) in transfected cell membranes.
Data set [5] deals with T1, cloned rat 5-HT1B receptor (Rattus norvegicus, UniProt P28564).
T1 construct: expressed in transfected cells; host or cells: Cos-7 cells, transient; membrane fraction
The data set is classed as binding. As for the experimental part:
To islolate the putative rat homolog of the 5-HT1D gone, a rat library was screened at high stringency using a human 5-HT1D sequence as a probe. […] To identify the pharmacological profile of this receptor, radioligand binding assays were performed on a membrane fraction derived from the transfected cells.

For data set [6], the system named is human 5-HT1D clone. In words: Radioligand binding to human 5-HT1D clone (comparison with rat clone).
The mark [7] stands for this setting: read-out: Estimated equilibrium dissociation constants (Ki values), [3H]5-HT displacement, membranes of LM (tk−) cells stably transfected, Cheng-Prusoff.

Cloned Canine 5-HT1D-1 (RDC4), sequence (P11614 whole entry): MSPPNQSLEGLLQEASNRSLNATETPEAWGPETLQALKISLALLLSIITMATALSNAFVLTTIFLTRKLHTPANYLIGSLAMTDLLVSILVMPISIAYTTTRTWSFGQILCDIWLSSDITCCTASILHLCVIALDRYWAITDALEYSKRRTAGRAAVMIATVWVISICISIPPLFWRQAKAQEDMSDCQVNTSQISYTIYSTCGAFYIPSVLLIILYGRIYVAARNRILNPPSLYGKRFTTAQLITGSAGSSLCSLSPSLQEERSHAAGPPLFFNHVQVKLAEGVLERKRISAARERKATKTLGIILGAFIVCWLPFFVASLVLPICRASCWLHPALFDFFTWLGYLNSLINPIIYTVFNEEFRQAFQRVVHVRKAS
Cloned Human 5-HT1D-2, sequence (P28222 whole entry): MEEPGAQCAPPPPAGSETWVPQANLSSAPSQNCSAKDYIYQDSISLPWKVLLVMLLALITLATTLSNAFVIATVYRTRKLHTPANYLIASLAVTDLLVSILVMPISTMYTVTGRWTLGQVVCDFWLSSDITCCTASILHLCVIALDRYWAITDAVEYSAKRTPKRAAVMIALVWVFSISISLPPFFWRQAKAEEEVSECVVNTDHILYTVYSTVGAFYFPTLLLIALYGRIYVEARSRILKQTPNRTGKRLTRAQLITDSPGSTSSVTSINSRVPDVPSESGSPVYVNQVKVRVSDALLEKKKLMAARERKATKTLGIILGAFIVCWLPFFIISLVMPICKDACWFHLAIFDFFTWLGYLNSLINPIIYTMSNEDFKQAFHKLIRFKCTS
Cloned Human 5-HT1D-1, sequence (P28221 whole entry): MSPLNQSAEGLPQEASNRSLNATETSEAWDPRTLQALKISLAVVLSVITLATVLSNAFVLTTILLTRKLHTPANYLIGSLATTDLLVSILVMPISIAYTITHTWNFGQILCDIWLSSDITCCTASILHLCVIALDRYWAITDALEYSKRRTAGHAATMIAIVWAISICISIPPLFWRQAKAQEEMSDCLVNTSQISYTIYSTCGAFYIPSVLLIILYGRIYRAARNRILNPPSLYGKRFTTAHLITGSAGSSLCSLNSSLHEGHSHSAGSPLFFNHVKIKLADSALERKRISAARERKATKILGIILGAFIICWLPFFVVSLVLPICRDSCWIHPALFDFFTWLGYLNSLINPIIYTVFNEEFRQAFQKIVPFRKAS
T1 sequence (P28564 whole entry): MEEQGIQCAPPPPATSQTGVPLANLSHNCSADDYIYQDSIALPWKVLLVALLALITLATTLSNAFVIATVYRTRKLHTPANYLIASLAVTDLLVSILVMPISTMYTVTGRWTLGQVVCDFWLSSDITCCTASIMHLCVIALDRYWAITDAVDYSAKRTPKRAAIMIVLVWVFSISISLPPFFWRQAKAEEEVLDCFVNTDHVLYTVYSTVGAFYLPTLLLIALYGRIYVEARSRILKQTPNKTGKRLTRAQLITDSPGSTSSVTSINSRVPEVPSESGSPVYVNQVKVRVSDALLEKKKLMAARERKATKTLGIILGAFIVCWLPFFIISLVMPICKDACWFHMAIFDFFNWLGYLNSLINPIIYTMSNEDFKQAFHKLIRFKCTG

One may read the Ki as a dissociation constant, usually derived from enzyme kinetics or from competition with a known ligand. Turning to `c1ccc2c(N3CCNCC3)cccc2c1` [1-Napthylpiperazine], the Ki was 12 ± 2 nM in data set [1] (setting [7]) and 7.4 ± 0.6 nM in data set [2] (setting [7]).

Take `Cc1[nH]c2ccc(O)cc2c1CCN` [2-methyl-5-HT]: the Ki in data set [3] was 1700 nM; in data set [4] (setting [7]) it was 444 ± 30 nM; in data set [1] (setting [7]), 860 ± 109 nM; in data set [2] (setting [7]), 915 ± 68 nM.

In the case of `NCCc1c[nH]c2ccc(OCc3ccccc3)cc12` [5-Benzoxyltryptamine], the figures for the Ki in data set [1] (setting [7]) and in data set [2] (setting [7]) were 19 ± 8 nM and 9.6 ± 3 nM, respectively.

In the case of `NCCc1c[nH]c2ccc(C(N)=O)cc12` [5-Carboxamidotryptamine], in data set [4] (RDC4-transfected cells), the “affinity for the binding site” value is recorded as “high affinity”. The Ki in data set [4] (setting [7]) was 0.92 ± 0.06 nM.

On to `NCCc1c[nH]c2ccc(O)cc12` [5-Hydrozytryptamine], for which the Ki in data set [3] was 6.5 nM; in data set [4] (setting [7]), 5 ± 1.4 nM.

Turning to `COc1ccc2[nH]cc(CCN)c2c1` [5-Methoxytryptamine], the Ki in data set [3] is 6.2 nM.

For `COc1ccc2[nH]cc(CCN(C)C)c2c1` [5-methoxy-DMT], the Ki in data set [4] (setting [7]) is 5.1 ± 1.7 nM.

Turning to `Oc1ccc2c(CCC3CCNCC3)c[nH]c2c1` [6-OH-indalpine], the “ability to compete for 3H-5-HT binding sites” value (from here on “ability to compete”) in data set [4] (RDC4-transfected cells) is reported as “unable to compete”.

Regarding `COc1cc(CC(C)N)c(OC)cc1I` (stereo not shown) [DOI], the Ki in data set [3] was 670 nM; in data set [4] (setting [7]), 729 ± 102 nM; in data set [1] (setting [7]), 1670 ± 451 nM; in data set [2] (setting [7]), 714 ± 81 nM.

Take `CCCN(CCC)C1CCc2cccc(O)c2C1` (stereo not shown) [DPAT]: the Ki is 340 nM in data set [3] and 86 ± 21 nM in data set [4] (setting [7]).

For the compound `CCCN(CCC)CCc1c[nH]c2ccc(C(N)=O)cc12` [Dipropyl-5-CT, dipropyl-5-carboxyamidotryptamine], in data set [5], the “activity at the rat receptor” value was “essentially inactive”. Further, the figures for the inhibition constant (Ki) in data set [1] (setting [7]) and in data set [2] (setting [7]) were 42 ± 4 nM and 13 ± 1 nM, respectively.

In the case of `CN1C[C@H](C(=O)N[C@]2(C)O[C@@]3(O)[C@@H]4CCCN4C(=O)[C@H](Cc4ccccc4)N3C2=O)C=C2c3cccc4[nH]cc(c34)C[C@H]21` [Ergotamine], the Ki in data set [3] was 0.3 nM; in data set [4], 1.9 ± 0.3 nM.

In the case of `CN1[C@@H]2CC[C@H]1C[C@@H](OC(=O)c1c[nH]c3ccccc13)C2` [ICS 205-930], in data set [4] (RDC4-transfected cells), the “ability to compete” value was “unable to compete”.

As to `O=C(c1ccc(F)cc1)C1CCN(CCn2c(=O)[nH]c3ccccc3c2=O)CC1` [Ketanserin], the Ki was over 10000 nM in data set [3], over 1000 nM in data set [4], 5200 ± 524 nM in data set [1] and 73 ± 12 nM in data set [2]. Besides, the “ability to compete” value in data set [4] (RDC4-transfected cells) is recorded as “unable to compete”.

In the case of `CN1C[C@H](CO)C=C2c3cccc4[nH]cc(c34)C[C@H]21` [Lysergol], the Ki in data set [1] (setting [7]) is 1.2 ± 0.1 nM; in data set [2] (setting [7]), 0.63 ± 0.1 nM.

On to `CN1C[C@H](CNC(=O)OCc2ccccc2)C[C@@H]2c3cccc4c3c(cn4C)C[C@H]21` [Metergoline], for which the Ki in data set [3] is 12 nM; in data set [1], 18 ± 3 nM; in data set [2], 5.8 ± 1.1 nM.

Turning to `CSc1ccc2c(c1)C(N1CCN(C)CC1)Cc1ccccc1S2` (stereo not shown) [Methiothepin], the values for the Ki in data set [3], in data set [1] (setting [7]) and in data set [2] (setting [7]) were 17 nM, 25 ± 7 nM and 11 ± 2 nM, respectively.

For `CC[C@@H](CO)NC(=O)[C@@H]1C=C2c3cccc4[nH]cc(c34)C[C@H]2N(C)C1` [Methylergonovine], the Ki in data set [1] came out at 2.9 ± 1.5 nM; in data set [2] it was 0.86 ± 0.36 nM.

Regarding `CC[C@@H](CO)NC(=O)[C@@H]1C=C2c3cccc4c3c(cn4C)C[C@H]2N(C)C1` [Methysergide], the Ki was 7.7 ± 1.7 nM in data set [4] (setting [7]), 25 ± 5 nM in data set [1] (setting [7]) and 3.6 ± 0.6 nM in data set [2] (setting [7]).

For `COc1ccccc1N1CCN(CCCCN2C(=O)c3ccccc3C2=O)CC1` [NAN-190], the Ki in data set [1] worked out at 652 ± 48 nM; in data set [2] it was 194 ± 12 nM.

For the compound `Nc1ccc(CCN2CCN(c3cccc(C(F)(F)F)c3)CC2)cc1` [PAPP], the Ki was 35 ± 6 nM in data set [4] (setting [7]), 10 ± 1 nM in data set [1] (setting [7]) and 3.1 ± 0.2 nM in data set [2] (setting [7]).

Regarding `Cc1ccc(N(CC2=NCCN2)c2cccc(O)c2)cc1` [Phentolamine], the inhibition constant (Ki) in data set [1] was determined as 2150 ± 685 nM; in data set [2] it was 775 ± 72 nM.

For the compound `CC(C)NCC(O)COc1cccc2[nH]ccc12` (stereo not shown) [Pindolol], the Ki is over 10000 nM in data set [3], over 1000 nM in data set [4], 4880 ± 302 nM in data set [1] and 4110 ± 504 nM in data set [2]. Further, in data set [4] (RDC4-transfected cells, 1 μm), the “effect of co-incubation on high affinity 3H-5-HT binding” value is “not affected”. The “effect of masking ligand on specific binding or pharmacological profile” value is reported as “no significant effect” in data set [4] (transfected Cos-7 cells, RDC4, masking ligand 1 μM) and “no significant effect” in data set [1] (transfected Cos-7 cells, peptide 11, masking ligand 1 μM).

Turning to `COC(=O)[C@H]1[C@H]2C[C@H]3c4[nH]c5ccccc5c4CCN3C[C@H]2CC[C@@H]1O` [Rauwolscine], the Ki amounted to 5.3 ± 2.9 nM in data set [4] and 16 ± 2 nM in data set [2].

Take `Cc1nc2sccn2c(=O)c1CCN1CCC(=C(c2ccc(F)cc2)c2ccc(F)cc2)CC1` [Ritanserin]: the Ki in data set [3] was 3600 nM; in data set [1], 1200 ± 115 nM; in data set [2], 54 ± 10 nM.

`CN1CCc2cc(Cl)c(O)cc2[C@@H](c2ccccc2)C1` [SCH-23390]: the Ki in data set [1] worked out at 1210 ± 626 nM; in data set [2], 676 ± 69 nM.

Consider `O=C(CCCN1CCC2(CC1)C(=O)NCN2c1ccccc1)c1ccc(F)cc1` [Spiperone], for which the results for the inhibitory constant (Ki) in data set [4], in data set [1] and in data set [2] (setting [7]) were over 1000 nM, over 10000 nM and 995 ± 96 nM, respectively.

For the compound `CNS(=O)(=O)Cc1ccc2[nH]cc(CCN(C)C)c2c1` [Sumatriptan], in data set [2] (refers to Table 1), the “affinity” value is “extremely high affinity”.

With `FC(F)(F)c1cccc(N2CCNCC2)c1` [TFMPP], the Ki was 210 nM in data set [3] and 112 ± 14 nM in data set [4] (setting [7]).

Regarding `NCCc1c[nH]c2ccccc12` [Tryptamine], the inhibition constant Ki in data set [3] was 46 nM; in data set [4] (setting [7]) it was 343 ± 15 nM.

As for `COC(=O)[C@@H]1[C@H]2C[C@H]3c4[nH]c5ccccc5c4CCN3C[C@@H]2CC[C@@H]1O` [Yohimbine], the Ki in data set [3] is 42 nM; in data set [4] (setting [7]) it was 32 ± 6 nM; in data set [2] (setting [7]), 22 ± 2 nM.

For the compound `COc1cc(N)c(Cl)cc1C(=O)NC1CN2CCC1CC2` (stereo not shown) [Zacopride], the Ki in data set [4], in data set [1] and in data set [2] was over 10000 nM in each case.

Consider `CC(C)(C)NCC(O)COc1cccc2[nH]c(C#N)c(I)c12` (stereo not shown) [[^125I]iodocyanopindolol], for which the Kd in data set [5] (Cos-7 membranes, in the presence of 3 μM isoproterenol, read-out: Kd of [125I]iodocyanopindolol) turned out to be 0.16 nM.

As to `CC(C)(C)NCC(O)COc1cccc2[nH]c(C#N)c([125I])c12` (stereo not shown) [[^125I]iodocyanopindolol], in data set [6] (at 1 nM), the “specific binding of [125I]I-CYP” value was “no specific binding detected”.

Take `Clc1cccc(N2CCNCC2)c1` [mCPP]: the Ki is 1200 nM in data set [3], 329 ± 80 nM in data set [4] (setting [7]), 361 ± 31 nM in data set [1] (setting [7]) and 216 ± 20 nM in data set [2] (setting [7]).

Corynanthine: the Ki in data set [3] was over 10000 nM.

Take ^3H-5-HT: the Kd is 4 nM in data set [6] (read-out: Kd of [3H]5-HT); about 3 nM in data set [4] (read-out: KD of radioligand (apparent high affinity), RDC4-transfected Cos-7 and Ltk- cells); 3.6 nM in data set [4] (read-out: Kd of radioligand, Ltk- cells transfected with RDC4); 3 nM in data set [4] (read-out: affinity of radioligand binding, transiently transfected Cos-7 cells, RDC4).
